What all share (assay type): cell-based, human
One experiment deals with hNav1.5. As to the kind of experiment: Whole-cell patch clamp, hNav1.5 in HEK293T cells. The settings on record: 10 μM ISTX-I; 50 ms step to -10 mV from -80 mV. The protocol: (§1) HEK293T (human embryonic kidney) cells were grown in DMEM containing 10% heat-inactivated FBS at 37 °C in a 5% CO2 incubator. The cDNA genes encoding human (h)Nav1.1, (h)Nav1.2, (h)Nav1.3, (h)Nav1.4, (h)Nav1.5, (h)Nav1.6 and (h)Nav1.7 were transiently transfected into HEK293T cells for electrophysiology using Lipofectamine-2000 (Invitrogen) in serum-reduced medium (Opti-MEM, Invitrogen) following the manufacturer’s instructions. The auxiliary subunits hβ1 and enhanced green florescent protein plasmids were cotransfected into HEK293T cells to increase the current density and efficiently select cells with green florescent protein for whole-cell patch-clamp recordings. After 12 h, the HEK293T cells were used for electrophysiological analysis.
(§2) DRG neurons with a large diameter (>[…]) and those with a relatively small diameter (<[…]) were chosen by measuring TTX-s and TTX-r currents, respectively. […] Potassium, calcium, and sodium currents were recorded in experimental cells using whole-cell patch-clamp recordings at room temperature, which were performed with an HEK EPC10 patch-clamp amplifier. […] Experimental data were acquired and analyzed using the programs patch master and Sigmaplot 9.0 (Sigma, USA). […]
(§3) Currents were recorded from experimental cells using whole-cell patch clamptechnique at room temperature (22–25 °C). […]
(The patch-clamp technique gives a direct electrical read-out from membranes.)

In the next experiment the test system is hNav1.2. As to the kind of experiment: Whole-cell patch clamp, hNav1.2 in HEK293T cells. The settings on record: 10 μM ISTX-I; 50 ms step to -10 mV from -80 mV. How it is done:
as §1, §2, §3

In another experiment the test system is hNav1.8. As to the kind of experiment: Whole-cell patch clamp, hNav1.8 in HEK293 cells. Conditions: legend of Figure S3; concentration not given; 50 ms step to -10 mV, held at -80 mV. The protocol: Electrophysiological studies.
Currents were recorded from experimental cells using whole-cell patch clamptechnique at room temperature (22–25 °C). The patch pipettes were fabricated from borosilicate glass tubing using a two-stage vertical microelectrode puller (PC-10, Narishige, Japan). After establishing the whole-cell recording configuration, the resting potential was held at −80 mV for at least 5 min to allow adequate equilibration between the micropipette solution and the cell interior. The micropipette solution of sodium currents for dorsal root ganglion neurons contained (in mM): 105 CsF, 35 NaCl, 10 HEPES, 10 EGTA (pH 7.4). The external solution contained (in mM): 50 NaCl, 100 TEA.Cl, 2 KCl, 1.5 CaCl2, 10 HEPES, 1 MgCl2, and 5 glucose (pH 7.4). K+ currents were recorded using an internal solution containing the followings (in mM): KCl 140, MgCl2 2.5, HEPES 10, and EGTA 11 (pH 7.2). The external bathing solution contained the followings (in mM): NaCl 150, KCl 5, CaCl2 25, MgCl2 12, HEPES 10, and D-glucose 10 (pH 7.2). Calcium channel currents were measured using Ba2+ as the charge carrier. The external solution contained (in mM): 160 TEA-Cl, 10 HEPES, 2 BaCl2, 10 glucoses, adjusted to pH 7.4 with TEA-OH. […]
Figure S1. […] The absorbance of the elution was monitored at 280 nm. […]

Bridge positions count the residues as written; N and C are the ends. Ends that are not written are not given here.

In the case of “LCSENGDCAADECCVDTVFEGDMVTRSCEKTTGNFTECPGLTPIA (disulfide 2-14, 8-28, 13-38) [ISTX-I]”, in the experiment with hNav1.5, the “effect on hNav1.5” value was “no effect”. Besides, the “effect on hNav1.2” value in the experiment on hNav1.2 is recorded as “no effect”. In addition, the “effect on hNav1.8” value with hNav1.8 was “No effect”.

For the origin of these results see article PMC4942781, “A sodium channel inhibitor ISTX-I with a novel structure provides a new hint at the evolutionary link between two toxin folds” (Scientific Reports, 2016).
